Experiments:
Assay type in all cases: in vivo
[1] = system: Amaranthus viridis; assay: Test Example 13: herbicidal effect test by soil treatment in upland field; conditions: 120 g/10a, 14 days after treatment
In short: (§1)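 Soil-applied emulsifiable concentrate at 120 g active ingredient per 10 are, sprayed one day after seeding into alluvial soil pots. Dry-weight-based suppression scored at 14 days; two replications.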

[2] = system: Echinochloa crus-galli; assay: as above; conditions: 120 g/10a, 14 days after treatment
In short: as §1

[3] = system: Chenopodium album; assay: as above; conditions: 120 g/10a, 14 days after treatment
In short: as §1

[4] = system: crabgrass; assay: as above; conditions: 120 g/10a, 14 days after treatment
In short: as §1

[5] = system: Scirpus juncoides; assay: Test Example 12: herbicidal effect test by treatment during growing period in paddy field; conditions: 120 g/10a; treatment seven days after sowing in flooded paddy pot; assessed 14 days after treatment
In short: (§2)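 Weed suppression (%) = (1 − treated/untreated mean dry weight) × 100, scored 14 days after treatment with two replicates per plot. Dose 120 g a.i. per 10 are, as diluted emulsifiable concentrate added dropwise to flooded pots (water about 3 cm) 7 days post-sowing, seeds at 0-1 cm.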

[6] = system: Lindernia pyxidaria; assay: as above; conditions: 120 g/10a; treatment seven days after sowing in flooded paddy pot; assessed 14 days after treatment
In short: as §2

[7] = system: Echinochloa crus-galli; assay: as above; conditions: 120 g/10a; treatment seven days after sowing in flooded paddy pot; assessed 14 days after treatment
In short: as §2

[8] = system: Monochoria vaginalis; assay: as above; conditions: 120 g/10a; treatment seven days after sowing in flooded paddy pot; assessed 14 days after treatment
In short: as §2

[9] = system: Scirpus juncoides; assay: Test Example 11: herbicidal effect test by soil treatment in paddy field; conditions: 120 g/10a active ingredient, 14 days after treatment
In short: (§3)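 Dry weight at day 14 relative to untreated controls gives the suppression rate; duplicate pots. Treatment: 120 g a.i./10 are into paddy water at sowing.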

[10] = system: Lindernia pyxidaria; assay: as above; conditions: 120 g/10a active ingredient, 14 days after treatment
In short: as §3

[11] = system: Echinochloa crus-galli; assay: as above; conditions: 120 g/10a active ingredient, 14 days after treatment
In short: as §3

[12] = system: Monochoria vaginalis; assay: as above; conditions: 120 g/10a active ingredient, 14 days after treatment
In short: as §3

[13] = system: Amaranthus viridis; assay: Test Example 14: herbicidal effect test by foliage treatment in upland field; conditions: 7 days after sowing, 120 g/10a, 14 days after treatment
In short: (§4)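 Post-sowing spray at day 7, 120 g a.i./10 are in 100 L water/10 are; alluvial soil pots, duplicate plots; endpoint day 14, % suppression from dry weight relative to untreated.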

[14] = system: Echinochloa crus-galli; assay: as above; conditions: 7 days after sowing, 120 g/10a, 14 days after treatment
In short: as §4

[15] = system: Chenopodium album; assay: as above; conditions: 7 days after sowing, 120 g/10a, 14 days after treatment
In short: as §4

[16] = system: crabgrass; assay: as above; conditions: 7 days after sowing, 120 g/10a, 14 days after treatment
In short: as §4

SMILES	herbicidal effect, Amaranthus viridis [1] [%]	herbicidal effect, Echinochloa crus-galli [2] [%]	herbicidal effect, Chenopodium album [3] [%]	herbicidal effect, Crabgrass [4] [%]	Weed suppression rate (%) Scirpus juncoides [5] [%]	Weed suppression rate (%) Lindemia pyxidaria [6] [%]	Weed suppression rate (%) Echinochloa crus-galli [7] [%]	Weed suppression rate (%) Monochoria vaginalis [8] [%]	Weed suppression rate (%) Scirpus juncoides [9] [%]	Weed suppression rate (%) Lindemia pyxidaria [10] [%]	Weed suppression rate (%) Echinochloa crus-galli [11] [%]	Weed suppression rate (%) Monochoria vaginalis [12] [%]	herbicidal effect, Amaranthus viridis [13] [%]	herbicidal effect, Echinochloa crus-galli [14] [%]	herbicidal effect, Chenopodium album [15] [%]	herbicidal effect, Crabgrass [16] [%]
CC(C)N(C(=O)n1cnn(S(=O)(=O)C2CC2)c1=O)c1ncc(Cl)cc1Cl [Compound 11-234]	90	80	80	90	90	90	90	90	90	90	90	80	90	80	80	90
CC(C)N(C(=O)n1cnn(S(=O)(=O)C2CC2)c1=O)c1ccc(Cl)nc1Cl [Compound 11-238]	90	80	80	90	90	80	100	90	90	100	90	80	90	80	80	90
CC(C)N(C(=O)n1cnn(S(=O)(=O)C2CCC2)c1=O)c1ccc(F)cc1F [Compound 11-258]	100	100	100	100	90	90	90	90	100	100	100	100	90	80	80	90
CC(C)N(C(=O)n1cnn(S(=O)(=O)C2CCCC2)c1=O)c1ccc(F)cc1F [Compound 11-273]	60	90	90	100	90	90	100	90	90	100	100	90	90	80	80	90
CC(C)N(C(=O)n1cnn(S(=O)(=O)C2CCCCC2)c1=O)c1ccccc1 [Compound 11-283]	90	80	80	90	90	90	90	90	90	90	100	70	90	80	80	90
CC(C)N(C(=O)n1cnn(S(=O)(=O)C2CCCCC2)c1=O)c1ccc(F)cc1F [Compound 11-294]	90	80	80	90	90	80	100	90	100	100	100	100	90	80	80	90
CC(C)N(C(=O)n1cnn(S(=O)(=O)C2CCCCC2)c1=O)c1c(F)cccc1F [Compound 11-296]	60	100	70	100	90	80	100	90	100	100	100	70	90	100	70	100
CC(C)N(C(=O)n1cnn(S(=O)(=O)C2CCCCC2)c1=O)c1ccc(F)c(F)c1F [Compound 11-297]	100	90	70	90	100	70	100	100	100	100	100	90	90	100	60	100
CC(C)N(C(=O)n1cnn(S(=O)(=O)C2CCCCC2)c1=O)c1c(F)cc(F)cc1F [Compound 11-298]	60	100	60	100	100	80	100	80	100	100	100	100	60	100	70	100
CC(C)N(C(=O)n1cnn(S(=O)(=O)C2CCCCC2)c1=O)c1ccc(F)cc1Cl [Compound 11-301]	90	80	80	90	90	80	90	80	90	80	90	80	90	80	80	90

— US11076595B2, “1-(n,n-disubstituted carbamoyl) 4-(substituted sulfonyl)triazolin-5-one derivative, 4-(n,n-disubstituted carbamoyl) 1-(substituted sulfonyl)triazolin-5-one derivative, and herbicide containing said derivative as active ingredient” (HOKKO CHEMICAL INDUSTRY CO., LTD., priority 2017, dated 2021)
